Measurements from patent US10508104B2, “6-hydroxy-5-(phenyl/heteroarylsulfonyl)pyrimidin-4(1H)-one as APJ agonists” (Bristol-Myers Squibb Company, priority 2016, dated 2019).
Where two headings read alike, the source gives them in different places.

Biological target: human APJ receptor (Homo sapiens (Human), UniProt P35414)
Experiment: Intracellular cAMP accumulation assay (APJ hcAMP, HTRF)
Assay type: cell-based
Details: human APJ, read-out: Human APJ cAMP EC50 Potency range
Procedure, shortened: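 HEK293 cells stably expressing human APJ, 5,000 per well, incubated 30 min at rt with compound, […] and 2 μM forskolin. cAMP measured by HTRF against a cAMP standard curve as inhibition of forskolin-driven production. EC50 from variable-slope sigmoidal fit.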

[1] = intracellular cAMP accumulation

human APJ receptor, sequence (P35414 whole entry): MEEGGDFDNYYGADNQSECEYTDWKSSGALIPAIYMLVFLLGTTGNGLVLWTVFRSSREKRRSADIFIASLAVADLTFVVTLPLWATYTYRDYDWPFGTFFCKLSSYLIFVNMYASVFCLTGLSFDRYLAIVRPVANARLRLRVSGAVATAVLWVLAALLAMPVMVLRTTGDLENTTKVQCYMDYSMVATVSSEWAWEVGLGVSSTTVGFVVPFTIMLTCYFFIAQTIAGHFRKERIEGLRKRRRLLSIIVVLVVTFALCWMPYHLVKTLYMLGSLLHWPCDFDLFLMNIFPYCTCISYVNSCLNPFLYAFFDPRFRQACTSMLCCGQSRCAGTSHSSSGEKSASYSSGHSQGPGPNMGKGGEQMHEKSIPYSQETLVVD

| Structure (SMILES) | EC50 [1] [nM] | EC50 (cAMP accumulation) [nM] |
| --- | --- | --- |
| CCCCc1nc(=O)c(S(=O)(=O)c2ccc(-c3ccncc3C)cc2)c(O)n1[C@@H](CC)c1cccc(F)c1 [Example 212, 2-butyl-1-[(1S)-1-(3-fluorophenyl)propyl]-6-hydroxy-5-[4-(3-methylpyridin-4-yl)benzenesulfonyl]-1,4-dihydropyrimidin-4-one] | 0.01 to 10 | – |
| CCCCc1nc(=O)c(S(=O)(=O)c2ccc(-c3cccnc3C)cc2)c(O)n1[C@@H](CC)c1cccc(F)c1 [Example 213, 2-butyl-1-[(1S)-1-(3-fluorophenyl)propyl]-6-hydroxy-5-[4-(2-methylpyridin-3-yl)benzenesulfonyl]-1,4-dihydropyrimidin-4-one] | 0.01 to 10 | – |
| CCCCc1nc(=O)c(S(=O)(=O)c2ccc(-c3cncc(F)c3)cc2)c(O)n1[C@@H](CC)c1cccc(F)c1 [Example 214, 2-butyl-1-[(1S)-1-(3-fluorophenyl)propyl]-5-[4-(5-fluoropyridin-3-yl)benzenesulfonyl]-6-hydroxy-1,4-dihydropyrimidin-4-one] | – | 0.01 to 10 |
| CCCCc1nc(=O)c(S(=O)(=O)c2ccc(-c3cccnc3C)cc2)c(O)n1[C@@H](CC)c1ccc2c(c1)OCO2 [Example 215, 1-[(1S)-1-(2H-1,3-benzodioxol-5-yl)propyl]-2-butyl-6-hydroxy-5-[4-(2-methylpyridin-3-yl)benzenesulfonyl]-1,4-dihydropyrimidin-4-one] | – | 0.01 to 10 |
| CCCCc1nc(O)c(S(=O)(=O)c2ccc(Br)cc2)c(=O)n1[C@@H](CC)c1cccc(F)c1 [Example 216, 5-(4-bromobenzenesulfonyl)-2-butyl-3-[(1S)-1-(3-fluorophenyl)propyl]-6-hydroxy-3,4-dihydropyrimidin-4-one] | – | 0.01 to 10 |
| CCCCc1nc(=O)c(S(=O)(=O)c2ccc(-c3ccnc(F)c3C)cc2)c(O)n1[C@@H](CC)c1cccc(F)c1 [Example 217, 2-butyl-5-[4-(2-fluoro-3-methylpyridin-4-yl)benzenesulfonyl]-1-[(1S)-1-(3-fluorophenyl)propyl]-6-hydroxy-1,4-dihydropyrimidin-4-one] | – | 0.01 to 10 |
| CCCCc1nc(=O)c(S(=O)(=O)c2ccc(-c3cncc(F)c3)cc2)c(O)n1[C@@H](CC)c1ccc2c(c1)OCO2 [Example 218, 1-[(1S)-1-(2H-1,3-benzodioxol-5-yl)propyl]-2-butyl-5-[4-(5-fluoropyridin-3-yl)benzenesulfonyl]-6-hydroxy-1,4-dihydropyrimidin-4-one] | – | 0.01 to 10 |
| CCCCc1nc(O)c(S(=O)(=O)c2ccc(Br)cc2)c(=O)n1[C@@H](CC)c1ccc2c(c1)OCO2 [Example 219, 3-[(1S)-1-(2H-1,3-benzodioxol-5-yl)propyl]-5-(4-bromobenzenesulfonyl)-2-butyl-6-hydroxy-3,4-dihydropyrimidin-4-one] | – | 0.01 to 10 |
| CCCCc1nc(=O)c(S(=O)(=O)c2ccc(-c3ccc(F)nc3C)cc2)c(O)n1[C@@H](CC)c1ccc2c(c1)OCO2 [Example 220, 1-[(1S)-1-(2H-1,3-benzodioxol-5-yl)propyl]-2-butyl-5-[4-(6-fluoro-2-methylpyridin-3-yl)benzenesulfonyl]-6-hydroxy-1,4-dihydropyrimidin-4-one] | – | 0.01 to 10 |
| CCCCc1nc(=O)c(S(=O)(=O)c2ccc(-c3cccnc3C)cc2)c(O)n1[C@H]1CCCc2ccccc21 [Example 221, 2-butyl-6-hydroxy-5-[4-(2-methylpyridin-3-yl)benzenesulfonyl]-1-[(1S)-1,2,3,4-tetrahydronaphthalen-1-yl]-1,4-dihydropyrimidin-4-one] | – | 0.01 to 10 |
| CCCCc1nc(=O)c(S(=O)(=O)c2ccc(-c3cncc(F)c3)cc2)c(O)n1[C@H]1CCCc2ccccc21 [Example 222, 2-butyl-5-[4-(5-fluoropyridin-3-yl)benzenesulfonyl]-6-hydroxy-1-[(1S)-1,2,3,4-tetrahydronaphthalen-1-yl]-1,4 dihydropyrimidin-4-one] | – | 0.01 to 10 |
| CCCCc1nc(O)c(S(=O)(=O)c2ccc(Br)cc2)c(=O)n1[C@@H](CC)c1cccc(C#N)c1 [Example 223, 3-[(1S)-1-[5-(4-bromobenzenesulfonyl)-2-butyl-4-hydroxy-6-oxo-1,6-dihydropyrimidin-1-yl]propyl]benzonitrile] | – | 0.01 to 10 |
| CCCCc1nc(=O)c(S(=O)(=O)c2ccc(-c3ccncc3C)cc2)c(O)n1[C@H]1CCCc2ccccc21 [Example 224, 2-butyl-6-hydroxy-5-[4-(3-methylpyridin-4-yl)benzenesulfonyl]-1-[(1S)-1,2,3,4-tetrahydronaphthalen-1-yl]-1,4-dihydropyrimidin-4-one] | – | 0.01 to 10 |
| CCCCc1nc(=O)c(S(=O)(=O)c2ccc(-c3cncc(F)c3)cc2)c(O)n1[C@@H](CC)c1cccc(C#N)c1 [Example 225, 3-[(1S)-1-{2-butyl-5-[4-(5-fluoropyridin-3-yl)benzenesulfonyl]-6-hydroxy-4-oxo-1,4-dihydropyrimidin-1-yl}propyl]benzonitrile] | – | 0.01 to 10 |
| CCCCc1nc(=O)c(S(=O)(=O)c2ccc(-c3ccc(F)nc3C)cc2)c(O)n1[C@@H](CC)c1cccc(C#N)c1 [Example 226, 3-[(1S)-1-{2-butyl-5-[4-(6-fluoro-2-methylpyridin-3-yl)benzenesulfonyl]-6-hydroxy-4-oxo-1,4-dihydropyrimidin-1-yl}propyl]benzonitrile] | – | 0.01 to 10 |
| CCCCc1nc(=O)c(S(=O)(=O)c2ccc(-c3cccnc3C)cc2)c(O)n1[C@@H](C)c1ccc(OC)cc1 [Example 227] | – | 0.01 to 10 |
| CCCCc1nc(=O)c(S(=O)(=O)c2ccc(-c3ccncc3C)cc2)c(O)n1[C@@H](C)c1ccccc1OC [Example 228, 2-butyl-6-hydroxy-1-[(1S)-1-(2-methoxyphenyl)ethyl]-5-[4-(3-methylpyridin-4-yl)benzenesulfonyl]-1,4-dihydropyrimidin-4-one] | – | 0.01 to 10 |
| CCCCc1nc(=O)c(S(=O)(=O)c2ccc(-c3ccncc3C)cc2)c(O)n1[C@@H](CC)c1cccc(C#N)c1 [Example 229, 3-[(1S)-1-{2-butyl-6-hydroxy-5-[4-(3-methylpyridin-4-yl)benzenesulfonyl]-4-oxo-1,4-dihydropyrimidin-1-yl}propyl]benzonitrile] | – | 0.01 to 10 |
| CCCCc1nc(=O)c(S(=O)(=O)c2ccc(-c3ccnc(F)c3C)cc2)c(O)n1[C@@H](CC)c1cccc(C#N)c1 [Example 230, 3-[(1S)-1-{2-butyl-5-[4-(2-fluoro-3-methylpyridin-4-yl)benzenesulfonyl]-6-hydroxy-4-oxo-1,4-dihydropyrimidin-1-yl}propyl]benzonitrile] | – | 0.01 to 10 |
| CCCCc1nc(=O)c(S(=O)(=O)c2ccc(-c3cccnc3C)cc2)c(O)n1[C@@H](C)c1ccccc1OC [Example 231, 2-butyl-6-hydroxy-1-[(1S)-1-(2-methoxyphenyl)ethyl]-5-[4-(2-methylpyridin-3-yl)benzenesulfonyl]-1,4-dihydropyrimidin-4-one] | – | 0.01 to 10 |
| CCCCc1nc(=O)c(S(=O)(=O)c2ccc(-c3cncc(F)c3)cc2)c(O)n1[C@@H](C)c1ccccc1OC [Example 232, 2-butyl-5-[4-(5-fluoropyridin-3-yl)benzenesulfonyl]-6-hydroxy-1-[(1S)-1-(2-methoxyphenyl)ethyl]-1,4-dihydropyrimidin-4-one] | – | 0.01 to 10 |
| CCCCc1nc(=O)c(S(=O)(=O)c2ccc(-c3ccc(F)nc3C)cc2)c(O)n1[C@@H](C)c1ccc(OC)cc1 [Example 233, 2-butyl-5-[4-(6-fluoro-2-methylpyridin-3-yl)benzenesulfonyl]-6-hydroxy-1-[(1S)-1-(4-methoxyphenyl)ethyl]-1,4-dihydropyrimidin-4-one] | – | 0.01 to 10 |
| CCCCc1nc(=O)c(S(=O)(=O)c2ccc(-c3cccnc3C)cc2)c(O)n1[C@@H](CC)c1cccc(C#N)c1 [Example 234, 3-[(1S)-1-{2-butyl-6-hydroxy-5-[4-(2-methylpyridin-3-yl)benzenesulfonyl]-4-oxo-1,4-dihydropyrimidin-1-yl}propyl]benzonitrile] | – | 0.01 to 10 |
| CCCCc1nc(O)c(S(=O)(=O)c2ccc(Br)cc2)c(=O)n1[C@H]1CCCc2ccccc21 [Example 235, 5-(4-bromobenzenesulfonyl)-2-butyl-6-hydroxy-3-[(1S)-1,2,3,4-tetrahydronaphthalen-1-yl]-3,4-dihydropyrimidin-4-one] | – | 10 to 100 |
| CCCCc1nc(=O)c(S(=O)(=O)c2ccc(-c3ccncc3C)cc2)c(O)n1[C@@H](C)c1ccc(OC)cc1 [Example 236, 2-butyl-6-hydroxy-1-[(1S)-1-(4-methoxyphenyl)ethyl]-5-[4-(3-methylpyridin-4-yl)benzenesulfonyl]-1,4-dihydropyrimidin-4-one] | – | 0.01 to 10 |
| CCCCc1nc(=O)c(S(=O)(=O)c2ccc(-c3ccc(F)nc3C)cc2)c(O)n1[C@H]1CCCc2ccccc21 [Example 237, 2-butyl-5-[4-(6-fluoro-2-methylpyridin-3-yl)benzenesulfonyl]-6-hydroxy-1-[(1S)-1,2,3,4-tetrahydronaphthalen-1-yl]-1,4-dihydropyrimidin-4-one] | – | 0.01 to 10 |
| CCCCc1nc(O)c(S(=O)(=O)c2ccc(Br)cc2)c(=O)n1[C@@H](C)c1ccccc1OC [Example 238, 5-(4-bromobenzenesulfonyl)-2-butyl-6-hydroxy-3-[(1S)-1-(2-methoxyphenyl)ethyl]-3,4-dihydropyrimidin-4-one] | – | 100 to 300 |
| CCCCc1nc(=O)c(S(=O)(=O)c2ccc(-c3ccnc(F)c3C)cc2)c(O)n1[C@@H](C)c1ccccc1OC [Example 239, 2-butyl-5-[4-(2-fluoro-3-methylpyridin-4-yl)benzenesulfonyl]-6-hydroxy-1-[(1S)-1-(2-methoxyphenyl)ethyl]-1,4-dihydropyrimidin-4-one] | – | 0.01 to 10 |
| CCCCc1nc(=O)c(S(=O)(=O)c2ccc(-c3ccc(F)nc3C)cc2)c(O)n1[C@@H](C)c1ccccc1OC [Example 240, 2-butyl-5-[4-(6-fluoro-2-methylpyridin-3-yl)benzenesulfonyl]-6-hydroxy-1-[(1S)-1-(2-methoxyphenyl)ethyl]-1,4-dihydropyrimidin-4-one] | – | 0.01 to 10 |
